Results published in publication PMC9090415, “Discovery of small molecule inhibitors of Plasmodium falciparum apicoplast DNA polymerase” (Journal of Enzyme Inhibition and Medicinal Chemistry, 2022).

Molecular target: P. falciparum apicoplast DNA polymerase (Pf-apPOL) (Plasmodium falciparum, UniProt Q8ILY1)
Test: Fluorescence-based high-throughput DNA polymerase assay (molecular beacon), primary screen and dose-response;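 as to % inhibition Apol 40': compound concentration given in µM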
Format: biochemical
Details: for DNA Pol: 90 min, 10 µM
In short: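 Single-point screening used 10 µM compound with 20 nM polymerase, 20 nM hairpin substrate and 6 µM dNTPs for 90 min at 25 °C. Confirmatory titrations (2.5–80 µM) followed fluorescence at three times, and IC50 was derived from a fit including a cooperativity term n.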

P. falciparum apicoplast DNA polymerase (Pf-apPOL), sequence (Q8ILY1 entry or part of it): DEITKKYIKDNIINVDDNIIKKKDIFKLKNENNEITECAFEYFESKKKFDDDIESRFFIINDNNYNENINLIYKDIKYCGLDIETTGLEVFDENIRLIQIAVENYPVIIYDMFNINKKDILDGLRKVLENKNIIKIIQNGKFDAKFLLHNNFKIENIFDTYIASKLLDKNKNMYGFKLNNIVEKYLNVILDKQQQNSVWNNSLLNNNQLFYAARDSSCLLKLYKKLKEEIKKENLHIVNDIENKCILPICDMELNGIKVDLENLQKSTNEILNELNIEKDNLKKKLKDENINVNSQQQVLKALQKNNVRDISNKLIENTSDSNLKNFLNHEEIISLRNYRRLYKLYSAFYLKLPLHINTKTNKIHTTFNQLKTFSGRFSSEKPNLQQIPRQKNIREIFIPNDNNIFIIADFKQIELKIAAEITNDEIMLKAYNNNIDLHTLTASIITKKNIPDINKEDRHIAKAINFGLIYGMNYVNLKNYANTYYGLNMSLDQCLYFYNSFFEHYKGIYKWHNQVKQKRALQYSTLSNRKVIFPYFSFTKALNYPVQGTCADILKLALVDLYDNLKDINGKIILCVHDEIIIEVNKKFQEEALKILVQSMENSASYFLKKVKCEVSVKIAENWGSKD

O=C1CCCC2=C1C(c1ccccn1)C1=C(CCCC1=O)O2 [KU0194228]
DNA Pol ('DNA Pol' of the 186 hits list (primary screen value)): 11
DNA Pol (DNA Pol (primary screen value)): 11
% inhibition Apo pol 10' (DRC-1, concentration 2.5): 1.279%
% inhibition Apo pol 10' (DRC-1, concentration 5): 9.9789%
% inhibition Apo pol 10' (DRC-1, concentration 10): 33.5344%
% inhibition Apo pol 10' (DRC-1, concentration 20): 43.7332%
% inhibition Apo pol 10' (DRC-1, concentration 40): 62.1087%
% inhibition Apo pol 10' (DRC-1, concentration 80): 77.9707%
% inhibition Apol 90' (DRC-1, concentration 2.5): 2.669%
% inhibition Apol 90' (DRC-1, concentration 5): 9.934%
% inhibition Apol 90' (DRC-1, concentration 10): 28.061%
% inhibition Apol 90' (DRC-1, concentration 20): 43.923%
% inhibition Apol 90' (DRC-1, concentration 40): 56.4118%
% inhibition Apol 90' (DRC-1, concentration 80): 74.3626%
% inhibition apPOL 180' (DRC-1, concentration 2.5): 5.61%
% inhibition apPOL 180' (DRC-1, concentration 5): 16.0813%
% inhibition apPOL 180' (DRC-1, concentration 10): 29.7893%
% inhibition apPOL 180' (DRC-1, concentration 20): 44.3828%
% inhibition apPOL 180' (DRC-1, concentration 40): 53.3605%
% inhibition apPOL 180' (DRC-1, concentration 80): 68.1872%
% inhibition Apo pol 5' (DRC-2, concentration 2.5): 5%
% inhibition Apo pol 5' (DRC-2, concentration 5): 4%
% inhibition Apo pol 5' (DRC-2, concentration 10): 22%
% inhibition Apo pol 5' (DRC-2, concentration 20): 33%
% inhibition Apo pol 5' (DRC-2, concentration 40): 44%
% inhibition Apo pol 5' (DRC-2, concentration 80): 43%
% inhibition Apol 40' (DRC-2, concentration 2.5): 2.6%
% inhibition Apol 40' (DRC-2, concentration 5): -9%
% inhibition Apol 40' (DRC-2, concentration 10): 15%
% inhibition Apol 40' (DRC-2, concentration 20): 33%
% inhibition Apol 40' (DRC-2, concentration 40): 46%
% inhibition Apol 40' (DRC-2, concentration 80): 52%
% inhibition ApPOL 90' (DRC-2, concentration 2.5): 2%
% inhibition ApPOL 90' (DRC-2, concentration 5): -14%
% inhibition ApPOL 90' (DRC-2, concentration 10): 18%
% inhibition ApPOL 90' (DRC-2, concentration 20): 37%
% inhibition ApPOL 90' (DRC-2, concentration 40): 49%
% inhibition ApPOL 90' (DRC-2, concentration 80): 58%
% inhibition apPOL 180' (DRC-2, concentration 2.5): -0.328%
% inhibition apPOL 180' (DRC-2, concentration 5): -74%
% inhibition apPOL 180' (DRC-2, concentration 10): 22%
% inhibition apPOL 180' (DRC-2, concentration 20): 41%
% inhibition apPOL 180' (DRC-2, concentration 40): 48%
% inhibition apPOL 180' (DRC-2, concentration 80): 60%

O=C(Nc1ccc2c(c1)Cc1cc(NC(=O)c3ccco3)ccc1-2)c1ccco1 [KU0038977]
DNA Pol ("DNA Pol" of the 186 hits list (screen value)): 27
% inhibition Apo pol 10' (DRC-1, concentration 2.5): -0.5837%
% inhibition Apo pol 10' (DRC-1, concentration 5): 5.785%
% inhibition Apo pol 10' (DRC-1, concentration 10): 28.4085%
% inhibition Apo pol 10' (DRC-1, concentration 20): 37.8617%
% inhibition Apo pol 10' (DRC-1, concentration 40): 75.7214%
% inhibition Apo pol 10' (DRC-1, concentration 80): 91.1334%
% inhibition Apol 90' (DRC-1, concentration 2.5): -0.5506%
% inhibition Apol 90' (DRC-1, concentration 5): 1.199%
% inhibition Apol 90' (DRC-1, concentration 10): 17.4686%
% inhibition Apol 90' (DRC-1, concentration 20): 25.9%
% inhibition Apol 90' (DRC-1, concentration 40): 60.9972%
% inhibition Apol 90' (DRC-1, concentration 80): 80.3159%
% inhibition apPOL 180' (DRC-1, concentration 2.5): -0.3262%
% inhibition apPOL 180' (DRC-1, concentration 5): 0.08289%
% inhibition apPOL 180' (DRC-1, concentration 10): 10.649%
% inhibition apPOL 180' (DRC-1, concentration 20): 16.9681%
% inhibition apPOL 180' (DRC-1, concentration 40): 47.3942%
% inhibition apPOL 180' (DRC-1, concentration 80): 72.1517%
% inhibition Apo pol 5' (DRC-2, concentration 2.5): 21%
% inhibition Apo pol 5' (DRC-2, concentration 5): 10%
% inhibition Apo pol 5' (DRC-2, concentration 10): 35%
% inhibition Apo pol 5' (DRC-2, concentration 20): 42%
% inhibition Apo pol 5' (DRC-2, concentration 40): 53%
% inhibition Apo pol 5' (DRC-2, concentration 80): 27%
% inhibition Apol 40' (DRC-2, concentration 2.5): 30%
% inhibition Apol 40' (DRC-2, concentration 5): 10%
% inhibition Apol 40' (DRC-2, concentration 10): 40%
% inhibition Apol 40' (DRC-2, concentration 20): 52%
% inhibition Apol 40' (DRC-2, concentration 40): 69%
% inhibition Apol 40' (DRC-2, concentration 80): 58%
% inhibition ApPOL 90' (DRC-2, concentration 2.5): 29%
% inhibition ApPOL 90' (DRC-2, concentration 5): 6.46%
% inhibition ApPOL 90' (DRC-2, concentration 10): 35%
% inhibition ApPOL 90' (DRC-2, concentration 20): 50%
% inhibition ApPOL 90' (DRC-2, concentration 40): 71%
% inhibition ApPOL 90' (DRC-2, concentration 80): 65%
% inhibition apPOL 180' (DRC-2, concentration 2.5): 20%
% inhibition apPOL 180' (DRC-2, concentration 5): -3.38%
% inhibition apPOL 180' (DRC-2, concentration 10): 23%
% inhibition apPOL 180' (DRC-2, concentration 20): 40%
% inhibition apPOL 180' (DRC-2, concentration 40): 68%
% inhibition apPOL 180' (DRC-2, concentration 80): 69%
DNA Pol (primary screen value, DNA Pol): 27
